For data set [1] the following is noted: 37° C. How it is done:
The samples were incubated at 37° C. An extraction (for extraction method with acetonitrile, see Item 7.3 below) of each product was carried out in triplicate at time 0 and after 1, 2, 4 and 6 hours of incubation.
10 μl of internal standard (prolyl-daunorubicin) and […] 150 μl of acetonitrile were added into tubes containing 50 μl of the sample to be extracted. The tubes were stirred and centrifuged for 10 minutes to 13000 g. The supernatant was diluted 4 times in a formate buffer, pH 4, centrifuged, then analyzed by HPLC (see Item 7.3 below).
At different time points, the concentrations of the conjugates and possible metabolites formed were evaluated by HPLC. FIG. 7 illustrates the variations of the concentration of products based on the incubation time.

The test system of data set [2] is HCT-116 human colon carcinoma xenograft. Kind of data set: Chemotherapy study in HCT-116 human colon carcinoma xenograft model. In kind it is in vivo, mice. An excerpt:
The anti-tumor efficacy of PEG2000-(DSer)4-ALAL-Dox was compared to that of succinyl-βALAL-Dox in an HCT-116 human colon carcinoma xenograft model that was implanted subcutaneously in Swiss nude/nude mice. The animals received 5 i.v. bolus injections (for 5 consecutive days) of succinyl-βALAL-Dox at 30 μmol/kg or PEG2000-(DSer)4-ALAL-Dox at 53 and 110 μmol/kg (6 mice/group). […] The results of FIG. 8 show the variations of the body weight of the animals. […] The anti-tumor efficacy is shown by the T/C curve that comprises two phases (FIG. 9). […] In the second phase, the activity of the PEGylated derivative (110 μmol/kg) decreased relative to that of succinyl-PALAL-Dox. […] The MTD of the PEGylated derivative was not reached in this study.
The anti-tumor efficacy of PEG2000-(DSer)4-ALAL-Dox was compared to that of PEG2000-ALAL-Dox in an HCT-116 human colon carcinoma xenograft model implanted subcutaneously in Swiss nude/nude mice. The animals received 5 i.v. bolus injections (for 5 consecutive days) of the compounds at doses of 200, 300, and 400 μmol/kg (5 mice/group). Contrary to PEG2000-ALAL-Dox, PEG2000-(DSer)4-ALAL-Dox was toxic at 300 and 400 μmol/kg and induced a weight loss and the death of the animals (FIG. 10).
(In general: Xenograft models place foreign cells or tissue in a host animal.)

Data set [3] deals with LS-174T human tumor xenografts. Kind of data set: Efficacy study in LS-174T human colon carcinoma xenograft model. Conditions: for T/C min / specific growth delay (SGD): LS-174T, Suc-beta-ALAL-Dox 50 μmol/kg, PEG2000-(DSer)4-ALAL-Dox 1×50+3×35 μmol/kg, i.v. days 0, 7, 14, 21; for body weight loss: as of the second week of weekly i.v. treatment.
Method: The experimental chemotherapy studies were carried out on athymic mice that carried LS-174T or HCT 116 (colon carcinomas) tumors of human origin previously grafted subcutaneously.
The mice were selected and distributed into the different groups of the study so as to have equal distributions of tumor volumes. The different treatments were randomly assigned to the groups so formed.
Treatments were administered intravenously in the caudal vein. During these injections, the animals received a constant volume of 10 μl/g of product (Workman et al., 1998). After the injection, the clinical signs were duly followed (each hour during the first day, and daily until the end of the study), as well as the weight that was measured at the same time as the tumor volume (mm^3). The growth of the tumor was monitored 2× per week by measuring, with the aid of a caliper, two perpendicular diameters (or “diagonals”) of the tumor (the largest and the smallest “diagonal”).
To determine the variations of the tumor volume of the different groups, the median of the relative tumor volumes (RTV for “relative tumor volume”) that express in percent the variations of the medians of the tumor volumes relative to day 0 was calculated. To estimate the effect of the various treatments, the inhibition of the growth was determined by calculating the ratio between the median of the RTV of the treated groups (T) and that of control group (C) that is expressed by percentage (T/C(%)).
The lowest value of the T/C ratio was used as a parameter to estimate the maximum efficacy of the products that were evaluated.
The Specific Growth Delay (SGD) was also calculated as (DTtreated−DTcontrol)/(DTcontrol).
For these reasons, growth delays (T-C) and specific growth delays (SGD) were calculated from linear regressions of different phases that characterize the growth of the tumors.
The products were injected intravenously (10 μl/g, 6 mice per group).
The administered doses were reduced starting from day 7.
For data set [4], the system named is LS-174T human colon cancer xenografts. Kind of data set: In vivo tumor reactivation of PEGylated prodrug derivatives (Dox and Leu-Dox accumulated in tumor). The note with it: i.v. bolus 69 μmol/kg, LS-174T tumor.
Data set [5] concerns MCF-7/6 cells. Kind of data set: Cytotoxicity test (WST-1 cell viability). In kind it is cell-based, human. Conditions: read-out: IC50 (50% inhibiting concentration), 48 hours incubation + 24 hours drug-free post-incubation. On the technique in general: Tetrazolium assays rely on reduction of a dye to a coloured formazan, in cell work by metabolically active cells.
Method: The cytotoxicity tests of doxorubicin and derivatives were carried out with MCF-7/6 cells and LNCaP cells.
The cells were collected by trypsinization, counted, and then inoculated in 96-well plates in 200 μl of serum-containing medium.
The cells were incubated for 24 hours at 37° C. before the addition of the products to be tested:
diluted to various concentrations in the serum-containing culture medium. After an incubation of 48 hours in the presence of various compounds, the cells were finally post-incubated at 37° C. for 24 hours in the presence of drug-free serum-containing medium. After this incubation period, a cell viability test was carried out (WST-1, Roche Molecular Biochemical, Mannheim, Germany).
They were then post-incubated for 24 hours in drug-free serum containing medium. The cytotoxicity of the products was estimated by a cell viability test (WST-1, Roche Molecular Diagnostic, Mannheim, Germany).
Where [6] appears, read: 1×50+3×35 μmol/kg vs doxorubicin 6.69 μmol/kg.

Data on six molecules can be found in patent publication US20060281897A1, “Potentialization of the activation of high molecular weight prodrugs” (priority 2003, published 2006).

Square brackets hold non-standard residues; d marks the D form. Some results are limits rather than exact numbers.

Take `COc1cccc2c1C(=O)c1c(O)c3c(c(O)c1C2=O)CC(O)(C(=O)CO)CC3OC1CC(NC(=O)C(CC(C)C)NC(=O)C(C)NC(=O)C(CC(C)C)NC(=O)C(C)N)C(O)C(C)O1` (stereo not drawn) [ALAL-Dox, Ala-Leu-Ala-Leu-doxorubicin, reference compound]: the stability in blood result in data set [1] (20 μM in citrated human blood) is “not stable in blood”. Besides, in data set [1] (after 1 hour, whole human blood), the “starting product degraded in Leu-Dox and Dox” value was found to be 80%.

As to `COc1cccc2c1C(=O)c1c(O)c3c(c(O)c1C2=O)CC(O)(C(=O)CO)CC3OC1CC(NC(=O)C(CC(C)C)NC(=O)C(C)NC(=O)C(CC(C)C)NC(=O)CCNC(=O)CCC(=O)O)C(O)C(C)O1` (stereo not drawn) [Suc-beta-ALAL-Dox, succinyl-beta-Ala-Leu-Ala-Leu-doxorubicin, reference compound], in data set [2] (30 μmol/kg ×5 i.v., end of the study, day 49), the body weight loss result is recorded as “about 20%”. Also, in data set [3], the T/C min came out at 26.6%, the “specific growth delay (SGD)” value is 3.02 and the body weight loss result is “slight weight loss”. The molecule further had a maximum weight loss in data set [3] (day 32, 45 and 50 μmol/kg groups) of 10%. Besides, in data set [4] (2 hours after injection), the “DOX concentration in tumor” value came to 1.93 nmol/mg and the “Leu-DOX concentration in tumor” value is 4.64 nmol/mg. Besides, in data set [4] (72 hours after injection), the “DOX concentration in tumor” value was found to be 5.41 nmol/mg and the “Leu-DOX concentration in tumor” value turned out to be 0.05 nmol/mg.

On to “PEG2000-(DSer)4-beta-Ala-Leu-Ala-Leu-doxorubicin [PEG2000-(DSer)4-beta-ALAL-Dox]”, for which the IC50 in data set [5] was 251 µM.

In the case of `COc1cccc2c1C(=O)c1c(O)c3c(c(O)c1C2=O)C[C@@](O)(C(=O)CO)C[C@@H]3O[C@H]1C[C@H](N)[C@H](O)[C@H](C)O1` [doxorubicin, reference compound], in data set [3], the body weight loss entry is “no significant weight loss”.

In the case of “PEG2000-(DSer)4-Ala-Leu-Ala-Leu-doxorubicin (PEG2000-[dS][dS][dS][dS]ALAL-doxorubicin) [PEG2000-(DSer)4-ALAL-Dox]”, in data set [1] (at 6 hours, whole human blood), the “hydrolysis: Dox formed” value is 5% and the “hydrolysis: L-Dox (Leu-Dox) formed” value came out at 5%. Besides, the anti-tumor effect result in data set [2] (53 μmol/kg ×5 i.v.) is “induced a tumor regression for the week of treatment”. Besides, the toxicity entry in data set [2] (53 and 110 μmol/kg, 5 i.v. bolus injections) is “no toxicity”. Besides, the “toxicity (weight loss and death of the animals)” value in data set [2] (300 and 400 μmol/kg, 5 i.v. bolus injections on 5 consecutive days) was “toxic”. In addition, in data set [2] (equimolar non-toxic dose 200 μmol/kg ×5 i.v.), the anti-tumor efficacy entry was “better anti-tumor efficacy than that of PEG2000-ALAL-Dox”. Also, the “maximum tolerated dose (MTD)” value in data set [2] (up to 110 μmol/kg ×5 i.v.) was “not reached”. Also, in data set [3] (setting [6]), the “activity during the first growth phase” value is recorded as “comparable to that of doxorubicin”; the “activity during the second growth phase” value was “more active than doxorubicin and as active as Suc-beta-ALAL-Dox”. In addition, in data set [3], the T/C min turned out to be 38%, the “specific growth delay (SGD)” value is reported as 1,58 and the body weight loss result is reported as “no significant weight loss”. Besides, the deaths result in data set [3] (initial i.v. bolus at 50 μmol/kg and 45 μmol/kg, 6 mice per group) is recorded as “One death”.

On to “PEG2000-beta-Ala-Leu-Ala-Leu-doxorubicin [PEG2000-beta-ALAL-Dox]”, for which the IC50 in data set [5] is above 500 µM.
